TGI and GI50 data for 14 compounds are collected here from PubChem BioAssay (NCI).

Some test systems named below: MCF7 breast; SR leukemia; RPMI-8226 leukemia; HT29 colon; HOP-62 NSCLC; MOLT-4 leukemia; OVCAR-3 ovarian; MALME-3M melanoma; SF-268 CNS; SN12C renal.
Common to all, as to experiment: NCI tumour cell line growth inhibition, 48 h

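Growth conditions: 96-well plates. Treatment: test compound, 48 hours, 5 concentrations. Analysis: linear interpolation between bracketing concentrations; unreached endpoints set to highest concentration. GI50 = concentration required for 50% inhibition of growth. TGI: concentration producing complete growth inhibition.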 A value given as a limit tells only on which side of the number the result lay.

For `CN(C)Cc1c[nH]c2nc[nH]c(=O)c12`, the TGI was 67.7 µM in the experiment on MCF7 breast; 53.7 µM in the experiment with SR leukemia; 59.4 µM in the experiment on RPMI-8226 leukemia; over 100 µM with HT29 colon; over 100 µM with HOP-62 NSCLC; 24.7 µM with MOLT-4 leukemia. Moreover, the TGI with OVCAR-3 ovarian, with MALME-3M melanoma, with SF-268 CNS and in the experiment on SN12C renal was over 100 µM throughout.

Consider `O=C1C=CC(=O)N1c1ccc2ccccc2c1`, for which the GI50 in the experiment on MCF7 breast was 16.6 µM; with SR leukemia it was 2.6 µM; with RPMI-8226 leukemia it was 2 µM; in the experiment on HT29 colon it was 4.94 µM; with HOP-62 NSCLC, 16.2 µM; with MOLT-4 leukemia it was 4.49 µM. The GI50 was 3.23 µM in the experiment on OVCAR-3 ovarian, 2.98 µM in the experiment on MALME-3M melanoma, 14.5 µM in the experiment with SF-268 CNS and 16.6 µM in the experiment with SN12C renal. The TGI in the experiment with MCF7 breast was 41.4 µM; with SR leukemia, 7.33 µM; in the experiment on RPMI-8226 leukemia, 4.97 µM; in the experiment with HT29 colon it was 27.8 µM; in the experiment on HOP-62 NSCLC it was 31.1 µM; in the experiment on MOLT-4 leukemia it was 34.9 µM. The TGI turned out to be 8.75 µM with OVCAR-3 ovarian, 8.19 µM in the experiment with MALME-3M melanoma, 28.3 µM with SF-268 CNS and 34.1 µM with SN12C renal.

On to `O=c1oc2cc(O)ccc2cc1-c1nc2ccccc2o1`, for which the TGI is over 100 µM in the experiment with MCF7 breast; over 100 µM in the experiment on SR leukemia; 75.8 µM in the experiment on RPMI-8226 leukemia; over 100 µM in the experiment with HT29 colon; over 100 µM in the experiment with HOP-62 NSCLC; over 100 µM in the experiment on MOLT-4 leukemia. The TGI is 61.8 µM with OVCAR-3 ovarian, over 100 µM in the experiment on MALME-3M melanoma, over 100 µM with SF-268 CNS and over 100 µM in the experiment with SN12C renal.

Take `C=CC(=O)N1CCN(c2nc(OC[C@@H]3CCCN3C)nc3c(F)c(-c4nc(N)cc(C)c4C(F)(F)F)c(Cl)cc23)[C@@H](C)C1`: the GI50 with MCF7 breast is 1.13 µM; in the experiment with SR leukemia it was 1.77 µM; with RPMI-8226 leukemia, 2.49 µM; in the experiment on HT29 colon it was 2.61 µM; in the experiment with MOLT-4 leukemia it was 1.91 µM; in the experiment with OVCAR-3 ovarian it was 1.66 µM. Besides, the figures for the GI50 in the experiment on MALME-3M melanoma, in the experiment on SF-268 CNS and in the experiment on SN12C renal were 1.86 µM, 1.59 µM and 1.6 µM, respectively. The TGI in the experiment with MCF7 breast is 2.51 µM; with SR leukemia, 4.54 µM; in the experiment with RPMI-8226 leukemia it was 7.06 µM; with HT29 colon it was 9.8 µM; in the experiment with HOP-62 NSCLC, 13.1 µM; in the experiment on MOLT-4 leukemia it was 7.63 µM. Besides, the TGI amounted to 3.14 µM in the experiment with OVCAR-3 ovarian, 3.37 µM in the experiment on MALME-3M melanoma, 3.19 µM with SF-268 CNS and 3.62 µM in the experiment with SN12C renal.

`CC(=O)OC1CCC2(C)C(=CCC3C2CCC2(C)C3CC3OC4(CCC(C)CN4)C(C)C32)C1` (configuration not stated): the TGI in the experiment with MCF7 breast, in the experiment on SR leukemia, in the experiment on RPMI-8226 leukemia, with HT29 colon, in the experiment on HOP-62 NSCLC and in the experiment with MOLT-4 leukemia was over 100 µM each time. The TGI in the experiment on OVCAR-3 ovarian, in the experiment on MALME-3M melanoma, in the experiment on SF-268 CNS and in the experiment with SN12C renal was over 100 µM in each case.

For `COc1cccc2c1C(=O)c1c(O)c3c(c(O)c1C2=O)C[C@@](O)(C(=O)CO)C[C@@H]3OC1CC2C(OCN2CN2COC3C(C)OC(O[C@H]4C[C@](O)(C(=O)CO)Cc5c(O)c6c(c(O)c54)C(=O)c4c(OC)cccc4C6=O)CC32)C(C)O1` (some centres not stated), the GI50 with MCF7 breast is 0.00264 µM; in the experiment with SR leukemia, 0.000289 µM; with RPMI-8226 leukemia, 0.0017 µM; in the experiment with HT29 colon, 0.00717 µM; with HOP-62 NSCLC, 0.00609 µM; with MOLT-4 leukemia it was 0.000203 µM. Further, the GI50 in the experiment on OVCAR-3 ovarian was 0.0142 µM; in the experiment with MALME-3M melanoma, 0.0149 µM; with SF-268 CNS it was 0.00258 µM; in the experiment on SN12C renal it was 0.00924 µM. Besides, the TGI worked out at 0.12 µM with MCF7 breast; 0.00476 µM with SR leukemia; 0.0108 µM in the experiment on RPMI-8226 leukemia; 0.115 µM in the experiment with HT29 colon; 0.103 µM in the experiment on HOP-62 NSCLC; 0.00801 µM in the experiment with MOLT-4 leukemia. Besides, the TGI with OVCAR-3 ovarian was 0.0534 µM; with MALME-3M melanoma it was 0.0399 µM; with SF-268 CNS it was 0.0469 µM; with SN12C renal, 0.101 µM.

As to `CCN(CC)CCNc1ccc2nc(C)n3c4ccc(OC)cc4c(=O)c1c23`, the TGI is 6.57 µM with MCF7 breast; 0.56 µM with SR leukemia; 5.34 µM with RPMI-8226 leukemia; 1.99 µM with HT29 colon; 21.7 µM with HOP-62 NSCLC; 1.15 µM in the experiment with MOLT-4 leukemia. Moreover, the TGI in the experiment on OVCAR-3 ovarian came out at 19.8 µM; in the experiment with MALME-3M melanoma, 21.7 µM; in the experiment on SF-268 CNS, 15.3 µM; in the experiment with SN12C renal, 15.2 µM.

As to `CCOC(=O)c1c(C)n(Cc2ccc(Cl)cc2Cl)c2c1cc(O)c1[nH]c(Cc3ccccc3)nc12`, the GI50 was 3.24 µM with MCF7 breast; 0.612 µM with SR leukemia; 1.92 µM in the experiment with RPMI-8226 leukemia; 3.89 µM with HT29 colon; 4.61 µM in the experiment with HOP-62 NSCLC; 2.3 µM with MOLT-4 leukemia. The GI50 with OVCAR-3 ovarian is 2.97 µM; in the experiment with MALME-3M melanoma it was 7.26 µM; in the experiment with SF-268 CNS, 2.59 µM; with SN12C renal, 4 µM. Moreover, the TGI in the experiment with MCF7 breast is 10.1 µM; with SR leukemia it was 2.22 µM; with RPMI-8226 leukemia, 3.9 µM; in the experiment on HT29 colon, 17.3 µM; with HOP-62 NSCLC, 19.4 µM; in the experiment on MOLT-4 leukemia, 5.27 µM. For the same compound, the TGI turned out to be 8.13 µM in the experiment with OVCAR-3 ovarian, 28.8 µM in the experiment with MALME-3M melanoma, 6.21 µM with SF-268 CNS and 12.1 µM in the experiment with SN12C renal.

For `Cc1ccc(S(=O)(=O)NC(=O)Nc2ncn[nH]2)cc1`, the TGI in the experiment with MCF7 breast, in the experiment on SR leukemia, with RPMI-8226 leukemia, in the experiment with HT29 colon, with HOP-62 NSCLC and in the experiment with MOLT-4 leukemia was over 100 µM each time. Further, the TGI in the experiment with OVCAR-3 ovarian, in the experiment with MALME-3M melanoma, with SF-268 CNS and with SN12C renal was over 100 µM in each case.

For `CCc1n(Cc2ccc3ccccc3c2)cc[n+]1Cc1ccc2ccccc2c1`, the GI50 was 0.384 µM with MCF7 breast; 0.528 µM in the experiment on SR leukemia; 0.376 µM in the experiment on RPMI-8226 leukemia; 0.563 µM in the experiment on HT29 colon; 1.42 µM in the experiment on HOP-62 NSCLC; 0.829 µM in the experiment on MOLT-4 leukemia. Also, the GI50 was 0.466 µM with OVCAR-3 ovarian, 0.247 µM in the experiment on MALME-3M melanoma, 0.817 µM with SF-268 CNS and 0.572 µM with SN12C renal. Also, the TGI in the experiment on MCF7 breast stood at 1.8 µM; in the experiment with SR leukemia, 4.28 µM; in the experiment on RPMI-8226 leukemia, 1.8 µM; in the experiment on HT29 colon, 2.23 µM; with HOP-62 NSCLC, 3.65 µM; in the experiment with MOLT-4 leukemia, 2.99 µM. The TGI in the experiment on OVCAR-3 ovarian came out at 1.74 µM; with MALME-3M melanoma it was 1.3 µM; in the experiment with SF-268 CNS, 2.42 µM; in the experiment on SN12C renal, 2.12 µM.

As to `CN(COC(=O)C(C)(C)C)c1nc(N(C)COC(=O)C(C)(C)C)nc(N(C)COC(=O)C(C)(C)C)n1`, the TGI with MCF7 breast, in the experiment on SR leukemia, with HT29 colon, in the experiment with HOP-62 NSCLC, in the experiment with MOLT-4 leukemia and with OVCAR-3 ovarian was over 100 µM in each case. Besides, the TGI in the experiment with MALME-3M melanoma is 98.5 µM; in the experiment with SF-268 CNS it was over 100 µM; in the experiment with SN12C renal it was over 100 µM.

In the case of `C(#Cc1ccccc1C#Cc1cnccn1)c1cnccn1`, the GI50 was 24.9 µM with MCF7 breast; 6.81 µM in the experiment on SR leukemia; 21.2 µM in the experiment on RPMI-8226 leukemia; 41.8 µM with HT29 colon; 26.3 µM in the experiment on HOP-62 NSCLC; 21.5 µM in the experiment on OVCAR-3 ovarian. In addition, the values for the GI50 in the experiment with MALME-3M melanoma, with SF-268 CNS and in the experiment on SN12C renal were 29.8 µM, 17.3 µM and 24.1 µM, respectively. Besides, the TGI in the experiment on MCF7 breast is over 67.5 µM; in the experiment with SR leukemia, over 100 µM; in the experiment on RPMI-8226 leukemia, over 63.4 µM; with HT29 colon it was over 100 µM; in the experiment on HOP-62 NSCLC it was 85.8 µM; with OVCAR-3 ovarian, over 63.1 µM. Besides, the TGI was 80.4 µM in the experiment with MALME-3M melanoma, 55.3 µM in the experiment on SF-268 CNS and over 87.1 µM with SN12C renal.

`O=C(NCCc1nccs1)c1cnc2c(S)cccc2c1`: the GI50 in the experiment on MCF7 breast is 1.02 µM; in the experiment on SR leukemia it was 0.677 µM; in the experiment on RPMI-8226 leukemia it was 4.15 µM; in the experiment on HT29 colon, 4.34 µM; in the experiment on HOP-62 NSCLC, 4.13 µM; in the experiment on MOLT-4 leukemia, 1.14 µM. Further, the GI50 with OVCAR-3 ovarian is 2.47 µM; with MALME-3M melanoma, 4.03 µM; in the experiment with SF-268 CNS it was 3.66 µM. Further, the TGI with MCF7 breast was 37.5 µM; in the experiment with SR leukemia it was over 100 µM; in the experiment on RPMI-8226 leukemia it was over 100 µM; in the experiment with HT29 colon, 37 µM; in the experiment with HOP-62 NSCLC, 20.9 µM; in the experiment with MOLT-4 leukemia it was over 100 µM. The TGI came to 9.21 µM in the experiment on OVCAR-3 ovarian, 52.4 µM with MALME-3M melanoma and 27.1 µM with SF-268 CNS.

In the case of `O=C1c2c[n+](Cc3ccccc3)ccc2-c2nc3ccccc3c3ccnc1c23`, the GI50 was 0.163 µM in the experiment on MCF7 breast; 0.066 µM in the experiment with SR leukemia; 1.06 µM in the experiment with RPMI-8226 leukemia; 0.971 µM in the experiment with HT29 colon; 0.0569 µM with HOP-62 NSCLC; 0.719 µM with MOLT-4 leukemia. Besides, the GI50 in the experiment on OVCAR-3 ovarian was 0.379 µM; in the experiment on MALME-3M melanoma it was 0.499 µM; in the experiment with SF-268 CNS it was 0.765 µM. In addition, the TGI in the experiment on MCF7 breast was determined as 0.89 µM; with SR leukemia, 3.6 µM; in the experiment with RPMI-8226 leukemia, 6.76 µM; in the experiment with HT29 colon, 3.46 µM; in the experiment with HOP-62 NSCLC, 0.817 µM; in the experiment on MOLT-4 leukemia, 1.89 µM. For the same compound, the values for the TGI with OVCAR-3 ovarian, in the experiment with MALME-3M melanoma and in the experiment with SF-268 CNS were 1.87 µM, 1.02 µM and 3.66 µM, respectively.
